Read-outs that look alike come from different tables or passages of the source.
Experiments:
[1] = system: herpes simplex virus belonging to antigenic type 2; assay: Murine model of experimental herpetic meningoencephalitis (mortality); format: in vivo, white outbred mice; details: Mus musculus, po, 336 h
Method: In the study, herpes simplex virus belonging to antigenic type 2 was used. White outbred mice weighing 7-8 g were infected i/c (intracerebrally) in a volume of 0.05 ml/mouse comprising a dose of 10LD50. The infectious dose of the virus that caused 100% mortality in mice was 10LD50. Each experimental group comprised 20 mice. Intact animals served as control and were hold in a separate room under the same conditions as the experimental animals. The antiviral activity of the compounds of general formula I was studied by oral administration of the compounds to infected mice once daily at a dose of 30 mg/kg/mouse 24, 48, 72, 96, and 120 hours after infection of the animals with the virus. The mice of the control group were administered placebo (0.2 mL of physiological solution) under the same conditions. The animals were monitored for 14 days after infection by registration the mouse death in the groups.
Each animal was subjected to once-daily observation. The observation included the assessment of general behavior and body condition of animals. The animals were handled according to the International Standards.
The activity of the compounds was evaluated by comparing mortality rates in the groups of animals administered a preparation and placebo.

[2] = system: Coxsackie A2 virus (strain HCXV A2); assay: Antiviral activity against Coxsackie virus in vivo (mortality and life expectancy of infected mice); details: for inhibition in vivo at 30 mg/kg / mortality at 30 mg/kg: Mus musculus, po; for inhibition in vivo at 30 mg/kg: 168 h, read-out: Protective index (%); for mortality at 30 mg/kg: 360 h, read-out: Total mortality, %; for Average life expectancy (days), Compared with control: difference vs virus control; for Average life expectancy (days), Relative: mice infected with 10LD50 HCXV A2
Summary of the method: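 White mice (6–7 g), 14–15 per group, infected i.m. with 10LD50 of HCXV A2; compounds 30 mg/kg orally once daily for 7 days from 24 h post-infection, saline placebo. Mortality and weight recorded daily over 15 days versus untreated infected group.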

Staphylococcus aureus = assay: Murine model of staphylococcal pneumonia (bacterial growth from lung imprints); format: in vivo, outbred mice; details: 5 days before and 2 days after S. aureus infection, lung imprints on Columbia agar, control 82.5
Method: The efficiency of the compounds was evaluated in outbred mice (females) infected with Staphylococcus aureus (mouse-adapted strain). The administration of the compounds was started 5 days before infection, orally at doses of 15 and 30 mg/kg in a volume of 0.2 mL. On day 5, the mice were infected intranasally under brief ether anesthesia by administration of Staphylococcus aureus at a dose of 10^9 CFU in a volume of 0.05 mL. One hour after infection, the administration of the compounds to the mice was continued at the above-indicated doses for additional 2 days. The reference drug was ampicillin administered intravenously at a single dose of 20 mg/kg. The control was mice infected with Staphylococcus aureus intranasally and treated with PBS. The mice were sacrificed two days after, the breast was dissected, and lung imprints were made in Petri dishes with Columbia agar. After incubation for 24 hours at 30° C., the presence (or absence) of Staphylococcus aureus bacterial growth was fixed in comparison with the control. The intensity of bacterial growth was evaluated in scores and expressed in %.

human virus hRSV = assay: Antiviral activity against mouse-adapted RS virus (body weight; viral titer in lungs titrated in Hep-2 cells); format: in vivo, mice; details: compounds 30 mg/kg, Ribavirin 40 mg/kg, orally once daily for 5 days, n = 6
[3] = 30 mg/kg orally once daily for 7 days, vs virus control
[4] = 30 mg/kg orally once daily for 7 days

| Structure (SMILES) | mortality at 30 mg/kg [1] [%] | inhibition in vivo at 30 mg/kg [2, 3] [%] | mortality at 30 mg/kg [2] [%] | Average life expectancy (days), Compared with control [2, 4] | Average life expectancy (days), Relative [2, 4] [days] | Bacterial growth, in % (Staphylococcus aureus; 15 mg/kg orally) | Bacterial growth, in % (Staphylococcus aureus; 30 mg/kg orally) | Body weight of the mice on day 5 after infection with hRSV (M ± SD) (human virus hRSV; day 5) | Body weight of the mice on day 7 after infection with hRSV (M ± SD) (human virus hRSV; day 7) | inhibition in vivo at 30 mg/kg [2] [%] |
| --- | --- | --- | --- | --- | --- | --- | --- | --- | --- | --- |
| O=C(O)CCCC(=O)NCCc1nc2ccccc2s1 [Compound 275] | 60 | 40 | 42.9 | +9.5 days | 22.4 | 35% | 40% | – | – | – |
| CC(C)N(CCc1cnc[nH]1)C(=O)CCCC(=O)O [Compound 141] | 50 | – | – | – | – | 55% | 40% | – | – | – |
| O=C(O)CCCC(=O)NCCC1CCCN1 (stereo not shown) [Compound 2] | 55 | 55.6 | 28.6 | +20.1 days | 32.3 | 50 (sporadic colonies (up to 100)) | 55% | – | – | – |
| O=C(O)CCCC(=O)NCCCc1c[nH]cn1 [Compound 118] | 70 | – | – | – | – | 55% | 50 (sporadic colonies (up to 100)) | – | – | – |
| O=C(O)CCCC(=O)NCCC1CCCCN1 (stereo not shown) [Compound 6] | 60 | – | – | – | – | 45% | 55% | 16.47 ± 0.26 | 17.02 ± 0.29 | – |
| Cc1csc(CCNC(=O)CCCC(=O)O)n1 [Compound 197] | 55 | – | 42.9 | +11.2 days | 22.2 | 45% | 60% | – | – | 33.3 |
| O=C(O)CCCC(=O)NCCCc1cccs1 [Compound 34] | 70 | 22.2 | 50 | +8.3 days | 20.5 | 25 (sporadic colonies (up to 10)) | 50 (sporadic colonies (up to 100)) | – | – | – |
| O=C(O)CCCC(=O)NC(Cc1c[nH]cn1)C(=O)O (stereo not shown) [Compound 251] | 65 | – | 42.9 | +10.0 days | 22.2 | 55% | 20% | – | – | 33.3 |
| CC(Cc1cnc[nH]1)NC(=O)CCCC(=O)O (stereo not shown) [Compound 115] | 65 | – | – | – | – | 55% | 25 (sporadic colonies (up to 10)) | – | – | – |
